Results: ChEMBL document CHEMBL3580661, “Structure-Guided Design of Group I Selective p21-Activated Kinase Inhibitors” (J Med Chem, 2015)
Converted amounts (≈) assume the structure as drawn.

Tests used:
[1] = molecular target: T1, Serine/threonine-protein kinase PAK 1 (Homo sapiens, UniProt Q13153); test: Inhibition of human recombinant PAK1 kinase domain using coumarin/fluorescein-labeled FRET peptide as substrate assessed as substrate phosphorylation at Ser/Thr19 preincubated for 10 mins followed by ATP addition measured after 60 mins by Z'-LYTE assay
[2] = molecular target: Serine/threonine-protein kinase PAK 4 (Homo sapiens, UniProt O96013); test: Inhibition of human recombinant PAK4 kinase domain using coumarin/fluorescein-labeled FRET peptide as substrate assessed as substrate phosphorylation at Ser/Thr19 preincubated for 10 mins followed by ATP addition measured after 60 mins by Z'-LYTE assay
[3] = Kinetic solubility of the compound; assay type: physicochemical; conditions: read-out: Kinetic_solubility
Rattus norvegicus = test: Plasma clearance in rat at 2.5 mg/kg, iv administered as bolus dose; assay type: ADME, organism-based; conditions: in vivo
Mus musculus = test: Plasma clearance in mouse at 2 mg/kg, iv administered as bolus dose; assay type: ADME, organism-based; conditions: in vivo
[4] = Drug metabolism in rat liver S9 fraction assessed as N-acetyltransferase-mediated metabolite formation by measuring parent compound level at 1 uM after 60 mins in presence of acetyl CoA, NADPH; assay type: ADME, subcellular; conditions: s9, 1 h
[5] = Apparent permeability across apical to basolateral side in MDCK cells; assay type: ADME, cell-based, Canis lupus familiaris; conditions: dog
Liver [6] = test: Metabolic stability in rat liver S9 fraction at 1 uM after 60 mins in presence of NADPH; assay type: ADME, subcellular; conditions: s9, 1 h
Liver [7] = test: Metabolic stability in rat liver S9 fraction at 1 uM after 60 mins in absence of NADPH; assay type: ADME; conditions: s9, 1 h
[8] = Apparent permeability across basolateral to apical side in MDCK cells; assay type: ADME, cell-based, Canis lupus familiaris; conditions: dog
Hepatocyte = test: Drug uptake in mouse hepatocytes; assay type: ADME, cell-based
[9] = molecular target: T1, Serine/threonine-protein kinase PAK 1; test: Inhibition of PAK1 in human EBC1 cells assessed as inhibition of MEK phosphorylation at S298 after 2 hrs by HTRF assay; assay type: cell-based
[10] = Lipophilicity, log D of the compound; assay type: physicochemical; conditions: octanol/water
[11] = Plasma clearance in rat at 2 mg/kg, iv administered as bolus dose; assay type: ADME, organism-based
[12] = Plasma protein binding in rat; assay type: ADME, cell-free; conditions: read-out: PPB (converted)
[13] = Plasma clearance in rat at 1 mg/kg, iv administered as bolus dose; assay type: ADME, organism-based
Aurora kinase A = molecular target: T2, Aurora kinase A (Homo sapiens, UniProt O14965); test: Inhibition of aurora A (unknown origin)
T2 sequence (O14965 whole entry): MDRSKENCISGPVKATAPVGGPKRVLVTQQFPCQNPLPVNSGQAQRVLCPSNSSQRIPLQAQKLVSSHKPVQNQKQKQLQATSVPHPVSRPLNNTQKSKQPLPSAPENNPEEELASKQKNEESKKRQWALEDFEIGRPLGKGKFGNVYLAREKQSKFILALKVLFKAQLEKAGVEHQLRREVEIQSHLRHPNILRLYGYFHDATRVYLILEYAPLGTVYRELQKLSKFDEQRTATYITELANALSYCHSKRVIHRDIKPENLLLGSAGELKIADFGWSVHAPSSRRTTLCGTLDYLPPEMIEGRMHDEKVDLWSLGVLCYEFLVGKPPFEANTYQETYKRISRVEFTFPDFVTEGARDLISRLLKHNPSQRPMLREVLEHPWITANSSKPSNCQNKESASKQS

[14] = Oral bioavailability in rat at 5 mg/kg; assay type: ADME, organism-based; conditions: in vivo

Sequence of Serine/threonine-protein kinase PAK 4 (O96013 whole entry, the tested form may be a part): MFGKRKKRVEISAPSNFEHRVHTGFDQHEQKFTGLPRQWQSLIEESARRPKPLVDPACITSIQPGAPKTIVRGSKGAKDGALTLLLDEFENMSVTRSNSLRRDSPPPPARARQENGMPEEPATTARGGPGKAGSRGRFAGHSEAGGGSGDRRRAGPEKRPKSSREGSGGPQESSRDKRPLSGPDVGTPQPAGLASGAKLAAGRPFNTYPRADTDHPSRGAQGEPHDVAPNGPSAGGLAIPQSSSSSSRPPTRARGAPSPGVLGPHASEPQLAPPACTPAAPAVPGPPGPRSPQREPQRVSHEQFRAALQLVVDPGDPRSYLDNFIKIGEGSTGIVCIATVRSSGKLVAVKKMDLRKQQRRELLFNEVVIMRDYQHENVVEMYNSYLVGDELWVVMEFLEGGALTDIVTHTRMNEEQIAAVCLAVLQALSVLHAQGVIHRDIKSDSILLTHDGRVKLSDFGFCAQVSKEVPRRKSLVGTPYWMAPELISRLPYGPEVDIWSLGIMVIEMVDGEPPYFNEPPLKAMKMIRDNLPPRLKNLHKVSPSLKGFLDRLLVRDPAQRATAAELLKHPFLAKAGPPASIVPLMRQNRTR
T1 sequence (Q13153 whole entry, the tested form may be a part): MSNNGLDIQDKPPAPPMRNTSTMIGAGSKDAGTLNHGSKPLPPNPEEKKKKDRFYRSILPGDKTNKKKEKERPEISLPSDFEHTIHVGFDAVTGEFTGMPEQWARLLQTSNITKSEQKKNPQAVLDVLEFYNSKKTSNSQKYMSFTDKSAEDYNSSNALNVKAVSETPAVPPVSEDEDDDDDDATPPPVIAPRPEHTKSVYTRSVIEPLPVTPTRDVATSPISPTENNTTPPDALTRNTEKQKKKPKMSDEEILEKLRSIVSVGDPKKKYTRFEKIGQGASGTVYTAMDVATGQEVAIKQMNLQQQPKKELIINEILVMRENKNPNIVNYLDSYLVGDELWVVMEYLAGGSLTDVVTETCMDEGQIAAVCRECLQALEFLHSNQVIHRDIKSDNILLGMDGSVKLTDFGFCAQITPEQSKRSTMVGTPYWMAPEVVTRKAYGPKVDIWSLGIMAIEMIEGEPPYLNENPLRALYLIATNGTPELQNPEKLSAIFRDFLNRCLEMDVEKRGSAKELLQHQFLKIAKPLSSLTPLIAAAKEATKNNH

| SMILES | Ki [1] [µM] | Ki [2] [µM] | Papp A→B [5] [×10⁻⁶ cm/s] | Papp B→A [8] [×10⁻⁶ cm/s] | IC50 [9] [µM] | further results |
| --- | --- | --- | --- | --- | --- | --- |
| Cn1cnc2ccc(CNc3nccc(Nc4cc(C5CC5)[nH]n4)n3)cc21 | 0.584 | 1.9 | – | – | – | – |
| N[C@H]1CC[C@H](Nc2nccc(Nc3cc(C4CC4)[nH]n3)n2)CC1 | 0.157 | 0.1 | – | – | – | – |
| Fc1c(CNc2nccc(Nc3cc(C4CC4)[nH]n3)n2)ccc2[nH]cnc12 | 0.179 | 1.11 | – | – | – | – |
| Cn1cnc2cc(CNc3nccc(Nc4cc(C5CC5)[nH]n4)n3)ccc21 | 0.607 | 1.66 | – | – | – | – |
| CC(C)c1cc(Nc2nc(N3CCC(N)CC3)nc3ccsc23)n[nH]1 | 0.033 | – | – | – | – | – |
| Cc1cc(Nc2nc(N3CCC(N)CC3)nc3ccsc23)n[nH]1 | 0.179 | – | – | – | – | – |
| CCc1cc(Nc2nc(N3CCC(N)CC3)nc3ccsc23)n[nH]1 | 0.033 | – | – | – | – | – |
| N[C@H]1CC[C@H](CNc2nccc(Nc3cc(C4CC4)[nH]n3)n2)CC1 | 0.026 | 0.038 | 0.5 | 2 | 2.2 | solubility kinetic [3]: 149 µM (≈ 48.9 µg/mL); clearance (Rattus norvegicus): 158 mL/min/kg; clearance (Mus musculus): 83 mL/min/kg; Stability [4]: 69.3%; Stability (Liver [6]): Stable; Stability (Liver [7]): Stable; Drug uptake (Hepatocyte): Active; logD [10]: -0.2 |
| C[C@H](Nc1nccc(Nc2cc(C3CC3)[nH]n2)n1)c1ccc2[nH]ccc2c1 | 0.031 | 0.042 | – | – | 0.12 | clearance [11]: 30 mL/min/kg |
| CN(C)c1ccc(CNc2nccc(Nc3cc(C4CC4)[nH]n3)n2)cn1 | 1.47 | 0.907 | – | – | – | – |
| CCN(Cc1ccc2[nH]cnc2c1Cl)c1nccc(Nc2cc(C3CC3)[nH]n2)n1 | 0.005 | 0.547 | 7.4 | 11.1 | 0.085 | fraction unbound [12]: 0.007; clearance [13]: 61 mL/min/kg; Ki (Aurora kinase A): 0.0053 µM |
| NC1CCN(c2nccc(Nc3cc(C4CC4)[nH]n3)n2)CC1 | 0.454 | 0.283 | – | – | – | – |
| CN(Cc1ccc2[nH]cnc2c1Cl)c1nccc(Nc2cc(C3CC3)[nH]n2)n1 | 0.004 | – | 1.9 | 18 | 0.11 | bioavailability [14]: 12%; fraction unbound [12]: 0.011; clearance [13]: 67 mL/min/kg |
| C[C@H](Nc1nccc(Nc2cc(C3CC3)[nH]n2)n1)c1ccc2[nH]cnc2c1 | 0.012 | 0.106 | 0.9 | 6.8 | 0.281 | fraction unbound [12]: 0.011; clearance [11]: 20.3 mL/min/kg |
| Clc1c(CNc2nccc(Nc3cc(C4CC4)[nH]n3)n2)ccc2[nH]cnc12 | 0.005 | 0.455 | 2.8 | 6.3 | 0.362 | fraction unbound [12]: 0.002; clearance [13]: 6.4 mL/min/kg |
| NC1CCN(c2nc(Nc3cc(C4CC4)[nH]n3)c3occc3n2)CC1 | 0.119 | 0.045 | – | – | – | – |
